Measured values reported in publication PMC8599855, “Detection of cancer stem cells by EMT-specific biomarker-based peptide ligands” (Scientific Reports, 2021).

System: SAS-EGFP-Fluc tumor
Experiment: SAS xenograft mouse model: tumor burden by bioluminescence, CD44 in excised tumors
Format: in vivo
Description: Frozen tissues sections or cell culture slides were fixed in 4% paraformaldehyde, washed with PBS and permeated with 0.1% Triton X-100 for 5 min before blocking with 20% FBS for 10 min at 37 °C, followed by the incubation with anti-vimentin antibody (cat. MAB3400, Millipore, Bedford, MA, USA) at 4 °C overnight. Sections were washed three times in PBS, each wash lasting 5 min then stained with Cy5-conjugated goat anti- mouse IgG (1:1000, cat. ab6563, Abcam, Cambridge, UK) for 1 h in the dark. All slides were mounted with VECTASHIELD Mounting Medium with DAPI (cat. H-1200, Vector Labs, Burligame, CA, USA) and covered with cover glasses before visualization under a laser-scanning confocal microscope (Zeiss LSM 880, Jena, Germany) with Zen Blue software (ZEISS, Jena, Germany).
All animal procedures were performed in accordance with the Guide for Care and Use of Laboratory Animals and National Yang-Ming University’s IACUC number was 1080110. Immunodeficient male mice (BALB/cAnNCrj-nu/nu, six weeks old, 20 gm) were provided by National Laboratory Animal Center (NLAC), NARLabs, Taiwan. Mice were group-housed (6 animals per cage) in individually ventilated cages (IVC) systems and had unlimited access to food and water. […] For establishment of xenografts, 2 × 10^6 SAS-EGFP-Fluc cells in 100 μL phosphate-buffered saline (PBS) were injected subcutaneously into the animal's right shoulder and 2 × 10^6 SAS-wt cells were injected into the left leg. Growth of the implanted tumors was monitored twice a week and tumor volumes were estimated from caliper measurements according to the following formula: tumor volume = (lengthÍwidth^2) Í0.523. […]
Tumor-bearing mice were anaesthetized with 2% isoflurane and then injected D-luciferin (150 mg/kg body weight diluted in PBS) into the mouse peritoneum. […] The luminescent intensity at tumor sites was analyzed using living image software 3.2 (IVIS 50 Imaging System, Perkin Elmer, Waltham, MA, USA). Bioluminescent signal was recorded as mean photons/s/centimeter^2/steradian (photon/s/cm^2/sr).

SMILES: COc1cc2c(NC3CCN(C(C)C)CC3)nc(N3CCC(F)(F)CC3)nc2cc1OCCCN1CCCC1 [Unc0642]
- Tumor growth (Fluc signal) (Unc0642 2.5 mg/kg i.p. every two days for 3 times, alone, versus DMSO control, day 18): clear delay in tumor growth
- Tumor growth (Fluc signal) (Unc0642 2.5 mg/kg i.p. plus 2 Gy IR, every two days for 3 times): no significant reduction was observed in Unc0642 plus IR treated mice until Day 21, but drastically dropped down on day 24
- CD44 expression in excised tumors (Unc0642/IR alone or Unc0642 plus IR groups versus control, IF staining): higher CD44 expression
